Test results as given in patent US8906952B2, “Indole derivative or pharmaceutically acceptable salt thereof, preparation method thereof, and pharmaceutical composition for preventing or treating metabolic diseases containing same as active ingredient” (Korea Research Institute of Bioscience and Biotechnology, priority 2011, dated 2014).

Columns and labels:
Assay type in all cases: biochemical
human DGAT2 = molecular target: T1, human DGAT2 (Homo sapiens, UniProt Q96PD7); assay: DGAT enzyme inhibition test, hDGAT2 enzyme from sf9 insect cells (DGAT2 selectivity); conditions: 10 μM; enzyme from sf9 cells overexpressing hDGAT2; read-out: hDGAT-2 (sf9) inhibition rate(%)at 10 μM
T1 construct: made in house; host or cells: sf9 insect cells
T1 sequence (Q96PD7 1-388): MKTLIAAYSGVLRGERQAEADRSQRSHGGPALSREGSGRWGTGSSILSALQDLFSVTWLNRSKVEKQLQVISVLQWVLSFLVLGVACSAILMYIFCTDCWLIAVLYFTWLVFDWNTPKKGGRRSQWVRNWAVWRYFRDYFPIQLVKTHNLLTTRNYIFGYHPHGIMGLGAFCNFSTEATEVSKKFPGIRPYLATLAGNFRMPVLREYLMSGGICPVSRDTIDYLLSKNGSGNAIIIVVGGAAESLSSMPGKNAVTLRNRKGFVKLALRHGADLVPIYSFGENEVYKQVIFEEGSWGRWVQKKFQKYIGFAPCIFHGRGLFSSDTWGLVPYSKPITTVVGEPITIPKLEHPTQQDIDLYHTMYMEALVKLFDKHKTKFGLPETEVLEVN
Method in brief: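 Microsomes (100–200 μg) from sf9 cells overexpressing the human enzyme were incubated 10 min at 25 °C with compound in 175 mM Tris-HCl pH 8.0, 100 mM MgCl2, BSA, 30 μM [14C]palmitoyl-CoA and 200 μM 1,2-dioleoylglycerol. Extracted [14C]triacylglycerol was counted by LSC. Inhibition was calculated from treated, untreated and no-enzyme counts.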

hDGAT-1 (HuTu 80) = molecular target: T2, hDGAT-1 (HuTu 80) (Homo sapiens, UniProt O75907); assay: DGAT enzyme inhibition test, microsomal protein from human duodenal adenocarcinoma (Hutu 80); conditions: microsomal protein from HuTu 80
T2 construct: microsomal protein isolated from human duodenal adenocarcinoma (‘Hutu 80’); endogenous in cells; host or cells: HuTu 80 human duodenal adenocarcinoma cells (microsomes)
T2 sequence (O75907 1-488): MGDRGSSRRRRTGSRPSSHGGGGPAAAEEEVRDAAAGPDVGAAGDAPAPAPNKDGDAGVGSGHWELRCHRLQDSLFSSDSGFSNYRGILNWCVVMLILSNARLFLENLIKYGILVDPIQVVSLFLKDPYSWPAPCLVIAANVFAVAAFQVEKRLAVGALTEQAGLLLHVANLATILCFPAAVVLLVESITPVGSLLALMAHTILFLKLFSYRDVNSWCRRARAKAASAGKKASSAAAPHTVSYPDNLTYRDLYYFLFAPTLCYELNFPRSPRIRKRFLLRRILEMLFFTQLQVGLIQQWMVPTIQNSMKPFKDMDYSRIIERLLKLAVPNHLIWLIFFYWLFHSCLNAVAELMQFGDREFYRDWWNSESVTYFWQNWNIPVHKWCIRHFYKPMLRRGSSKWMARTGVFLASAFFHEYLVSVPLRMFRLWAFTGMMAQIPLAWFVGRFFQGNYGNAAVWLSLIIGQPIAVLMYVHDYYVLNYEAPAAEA
Excerpt: (§1) To investigate inhibitory effect of the compounds of Examples 1-33 against DGAT enzyme activity, DGAT enzyme inhibition and DGAT2 selectivity were investigated using zymogen including:
2) DGAT enzyme derived from human duodenal adenocarcinoma (‘Hutu 80’), and
(§2) To be specific, for the purpose of measuring human-derived DGAT enzyme inhibitory activity, using the zymogen, including enzymes derived from insect cell overexpressing human DGAT1 and DGAT2 (‘sf9’), microsomal protein isolated from human duodenal adenocarcinoma (‘Hutu 80’), and microsomal protein isolated from rat, and according to Coleman et al., (Methods Enzymol., 98-103, 1992), and substrate including 1,2-diacylglycerol(Sigma, D0138) and [^14C]palmitoyl-CoA (Amersham, CFA583), the amount of radiation of [^14C]triacylglycerol produced after enzymatic reaction was measured.
(§3) To be more specific, to the reaction solution containing 175 mM Tris-HCl (pH 8.0), 20 μl bovine serum albumin (10 mg/ml), 100 mM magnesium chloride, 30 μM [^14C]palmitoyl CoA (0.02 μCi, Amersham) and 200 μM 1,2-dioleoylglycerol, reagent dissolved in dimethylsulfoxide (10.0 μl) was added. After introducing 100 to 200 μg isolated microsomal protein and allowing the same to react at 25° C. for 10 min, the reaction was stopped by adding 1.5 ml stop solution (2-propanol:heptane:water=80:20:2, v:v:v). To isolate the product of the reaction (i.e., [^14C]triacylglycerol), 1 ml heptane and 0.5 ml distilled water were added and then decocted. After taking 1 ml supernatant, 2 ml alkaline ethanol solution (ethanol:0.5 N sodium hydroxide:water=50:10:40, v:v:v) were added and then decocted. After taking 0.65 ml supernatant from the decoction, the amount of radiation was measured with liquid scintillation counter (LSC). The DGAT inhibitory activity was calculated with Mathematical Expression 1 below:
(§4) T denotes cpm of experimental group in which the enzymatic reaction solution was treated with the sample,
(§5) C denotes cpm of control group in which the enzymatic reaction solution was not treated with the sample, and
(§6) B denotes cpm of control group treated with the sample without zymogen.

DGAT-1 (rat liver) = molecular target: T3, DGAT-1 (rat liver) (Rattus norvegicus, UniProt Q9ERM3); assay: DGAT enzyme inhibition test, rat liver-derived DGAT enzyme; conditions: rat liver microsomal protein
T3 construct: microsomal protein isolated from rat; from tissue; host or cells: rat liver microsomes
T3 sequence (Q9ERM3 1-498): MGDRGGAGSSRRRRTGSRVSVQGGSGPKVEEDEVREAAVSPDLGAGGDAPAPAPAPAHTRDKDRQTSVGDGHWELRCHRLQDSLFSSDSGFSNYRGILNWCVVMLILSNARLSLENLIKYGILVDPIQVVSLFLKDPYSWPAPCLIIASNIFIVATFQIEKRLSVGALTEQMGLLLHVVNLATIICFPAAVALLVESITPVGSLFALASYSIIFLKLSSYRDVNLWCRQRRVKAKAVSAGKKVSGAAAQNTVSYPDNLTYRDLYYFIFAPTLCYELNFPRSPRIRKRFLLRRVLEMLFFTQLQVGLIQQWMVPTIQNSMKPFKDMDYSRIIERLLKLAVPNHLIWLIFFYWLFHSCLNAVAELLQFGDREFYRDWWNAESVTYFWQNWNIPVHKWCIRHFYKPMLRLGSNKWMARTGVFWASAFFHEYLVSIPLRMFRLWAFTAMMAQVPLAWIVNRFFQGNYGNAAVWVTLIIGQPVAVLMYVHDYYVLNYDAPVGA
Excerpt: as §1
3) rat liver-derived DGAT enzyme.
as §2, §3, §4, §5, §6

CC(C)N(NC(=O)c1cccc(OCC(=O)O)c1)C(=O)/C=C/c1cn(C(=O)OC(C)(C)C)c2ccccc12 [Example 19, (E)-2-(3-(2-(3-(1-(tert-butoxycarbonyl)-1H-indol-3-yl)acryloyl)-2-isopropylhydrazinecarbonyl)phenoxy)acetic acid]
inhibition at 10 µM (human DGAT2): < 0%
IC50 (hDGAT-1 (HuTu 80)): > 100 µM
IC50 (DGAT-1 (rat liver)): 45.5 µM
